r = 2'-OH (RNA)
How the values were obtained:
[1] = test system: endogenous mutant EGFR gene (del(L747-E749)-A750P); experiment: RT-PCR analysis of endogenous mutant EGFR expression in PC3 cells after siRNA electroporation; assay type: cell-based, human; details: siRNA 5 μM by electroporation, 24 hours, PCR and electrophoresis
Method: (§1) The human non-small cell lung cancer-derived cell line PC3 cells were cultured at 37° C. under 5% CO2 using an EMEM culture solution (Wako Pure Chemical Industries, Ltd.) containing 10% fetal bovine serum (FBS; Invitrogen Corp.).
(§2) The cells cultured in the preceding paragraph (1) were dispersed by trypsin digestion, then collected by centrifugation (120 G, 5 min.) and suspended at a concentration of approximately 1×10^6 cells in 100 μL of an electroporation buffer (Amaxa Cell Line Nucleofector Solution V, Amaxa Biosystems GmbH) containing each EGFR-siRNA (final concentration: 5 μM). These 3 samples for electroporation thus prepared were subjected to nucleic acid introduction (one of the samples was a control experimental group without nucleic acid introduction) by electroporation (program: U-005, gene introduction system Nucleofector, Amaxa Biosystems GmbH) according to the protocol included therein.
(§3) The cells of these 3 groups were separately cultured in a 6-well culture plate using the culture solution of the paragraph (1) and collected 24 hours later. […]
(§4) The cDNAs obtained in the preceding paragraph (3) were analyzed by PCR using AmpliTaq Gold DNA Polymerase (Applied Biosystems, Inc.) and primers specifically amplifying the EGFR mutation sites and their neighboring sequences. […] Then, the PCR amplification products were analyzed by electrophoresis (7% polyacrylamide gel, 100 mA, 1 hr.).

[2] = test system: wild-type EGFR gene; experiment: RT-PCR analysis of wild-type EGFR expression in PC3 cells after siRNA electroporation; assay type: cell-based, human; details: siRNA 5 μM by electroporation, 24 hours, PCR and electrophoresis
Method: as §1, §2, §3, §4

[3] = test system: PC3 cells; experiment: Cell growth and survival activity evaluation (1), MTS/NADH; assay type: cell-based, human; details: PC3 cells after siRNA electroporation; compared with No siRNA and siControl
Method: PC3 cells were cultured in the same way as in “Example 2(1)”.
Electroporation was performed in the same way as in “Example 2(2)”.
The cells were cultured (cell density: approximately 3×10^4 cells/well) in a 96-well culture plate using the culture solution of the paragraph (1). One day and 4 days later, the cells were subjected to each evaluation experiment. si747/49-3D19 was also subjected to similar evaluation experiments, together with a control, 2 days and 6 days after the cell culture.
In order to evaluate the cell growth and survival activity of PC3 cells after the introduction of si747/49-3D19, MTS reductive effect induced by nicotinamide adenine dinucleotide (NADH) contained in live cells was measured using CellTiter 96 AQueous Non-Radioactive Cell Proliferation Assay (Promega Corp.). The experimental procedures followed the protocol included in the product. Absorbance was measured using BenchMark Plus (Bio-Rad Laboratories, Inc.). The negative controls used were the same two controls (No siRNA and siControl) as in the cell growth ability assay.

[4] = test system: PC3 cells subcutaneously transplanted to nude mice; experiment: Mouse model with subcutaneous tumor by xenoectopic transplantation of PC3 cells, intratumoral EGFR-siRNA; assay type: in vivo, nude mouse (BALB/cAJcl-nu/nu); details: single 1.0 mg/kg dose directly to the tumor with atelocollagen, vs atelocollagen only and siControl; for wet weight of the tumor: 3rd week; for tumor volume (swelling of the subcutaneous tumor): up to 3rd week
Method: PC3 cells were subcutaneously transplanted to nude mice to prepare mouse models with subcutaneous tumor. The mouse models were used to test tumor growth inhibitory effects by the administration of each EGFR-siRNA.
The cultured PC3 cells were dispersed by trypsin digestion, then collected by centrifugation (120 G, 5 min.), and resuspended in a serum- and antibiotic-free culture solution (RPMI-1640, Wako Pure Chemical Industries, Ltd.) to adjust the number of cells to 1×10^7 cells/mL. This cell suspension and BD Matrigel Basement Membrane Matrix (Becton, Dickinson and Company) were mixed in equal amounts to adjust the number of cells to 5×10^6 cells/mL. This suspension was subcutaneously administered at a dose of 100 μL (0.5×10^6 cells) to the right flank region of each immunodeficient model nude mouse (5 weeks old, BALB/cAJcl-nu/nu, CLEA Japan, Inc.).
The complexing procedures followed the protocol included therein. The final concentration of each EGFR-siRNA (si747/49-3D 19 or si747/49(A)-8D 19) was set to 0.1 mg/mL.
One week after PC3 cell transplantation (6 weeks old), tumor volume was calculated from tumor diameters. Three samples prepared above, i.e., the siRNA-free atelocollagen solution and 20 μg/200 μL solutions of siControl and each EGFR-siRNA were separately administered once at a dose of 1.0 mg/kg body weight directly to the tumor that reached approximately 50 mm^3. The tumor volume was calculated according to the following equation: Volume=(minor axis)^2×(major axis)×0.5
In the 3rd week after the administration of the siRNA, etc. (9 weeks old) (FIG. 25A, si747/49-3D19; FIG. 28A, si747/49(A)-8D19), the tumor volume was calculated according to the equation. In addition, the tumor was taken out of each mouse (FIG. 25B, si747/49-3D19; FIG. 28B, si747/49(A)-8D19), and its wet weight was measured.

Substance	expression of the endogenous mutant EGFR gene [1]	expression of the wild-type EGFR gene [2]	cell growth and survival activity (cell survival rate), NADH activity [3]	wet weight of the tumor [4]	tumor volume (swelling of the subcutaneous tumor) [4]
si747/49-3D19: siRNA against EGFR del(L747-E749)-A750P(G) mutant gene; ss SEQ ID NO 55, as SEQ ID NO 56, 3′ UU added (sense GUCGCUAUCAAGGAGCCAA; antisense UUGGCUCCUUGAUAGCGAC; RNA, 3' rUrU, backbone not given here; listed as Homo sapiens)	specifically and strongly suppressed	without suppressing	significantly suppressed the growth rates of the cells or reduced their survival rates	significantly reduced	significantly suppress the swelling of the subcutaneous tumor
si747/49(A)-8D19: siRNA against EGFR del(L747-E749)-A750P(A) mutant gene; ss SEQ ID NO 139, as SEQ ID NO 140, 3′ UU added (sense CUAUCAAGGAACCAACAUC; antisense GAUGUUGCUUCCUUGAUAG; RNA, 3' rUrU, backbone not given here)	specifically and strongly suppressed	without suppressing	significantly suppressed the growth rates of the cells or reduced their survival rates	significantly reduced	significantly suppress the swelling of the subcutaneous tumor
